# Earlier results, collected in EP1136069A1, “Pharmaceutical compositions containing clodronates for high local tolerance intramuscular administration” (SPA SOCIETA' PRODOTTI ANTIBIOTICI S.p.A., priority 2000, dated 2001).
# Conditions: oral route
structure (smiles),measurement,value
O=P(O)(O)C(Cl)(Cl)P(=O)(O)O [clodronate],bioavailability,1-4%
